Consider 1 compound from paper PMC11233931, “Remodeling tumor‐associated macrophage for anti‐cancer effects by rational design of irreversible inhibition of mitogen‐activated protein kinase‐activated protein kinase 2” (MedComm, 2024).

Structures are written as SMILES.

As usually defined, the inhibition is the change of the read-out against control, counted positive when it falls.

What all share (assay): Eurofins kinase selectivity profile against 380 other human recombinant kinases (Table S2)
What all share (type): biochemical

The target in test [1] is T1, 380 human recombinant protein kinases (Homo sapiens, UniProt O96013).
T1 construct: purchased Eurofins (Celle Lévescault)
T1 sequence (O96013 whole entry): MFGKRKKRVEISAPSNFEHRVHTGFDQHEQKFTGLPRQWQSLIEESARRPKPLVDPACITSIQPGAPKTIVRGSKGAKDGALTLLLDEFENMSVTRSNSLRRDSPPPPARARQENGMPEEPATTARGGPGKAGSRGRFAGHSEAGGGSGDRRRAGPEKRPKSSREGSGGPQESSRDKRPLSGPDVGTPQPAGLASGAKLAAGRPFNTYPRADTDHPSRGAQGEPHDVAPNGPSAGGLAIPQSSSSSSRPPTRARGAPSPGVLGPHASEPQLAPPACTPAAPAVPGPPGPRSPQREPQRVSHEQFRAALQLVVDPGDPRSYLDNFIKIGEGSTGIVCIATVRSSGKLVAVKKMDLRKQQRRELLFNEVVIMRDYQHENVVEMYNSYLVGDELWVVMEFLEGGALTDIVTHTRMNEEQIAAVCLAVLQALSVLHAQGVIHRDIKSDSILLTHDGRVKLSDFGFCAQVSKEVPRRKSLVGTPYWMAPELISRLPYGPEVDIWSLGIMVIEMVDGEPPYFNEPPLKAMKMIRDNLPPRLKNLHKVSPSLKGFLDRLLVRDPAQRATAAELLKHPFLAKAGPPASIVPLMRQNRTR
Particulars: PAK4(h), read-out: Inhibition rate. The method in brief:
(§1)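 The inhibitor was sent to a contract lab and screened at various concentrations against 380 human recombinant protein kinases. This served as a counter-screen for MK2 specificity.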

Test [2] concerns the target T2, 380 human recombinant protein kinases (Homo sapiens, UniProt P28482).
T2 construct: purchased Eurofins (Celle Lévescault)
Particulars: MAPK2(h), read-out: Inhibition rate. The method in brief:
as §1

In test [3] the target is T3, 380 human recombinant protein kinases (Homo sapiens, UniProt O94768).
T3 construct: purchased Eurofins (Celle Lévescault)
T3 sequence (O94768 1-372): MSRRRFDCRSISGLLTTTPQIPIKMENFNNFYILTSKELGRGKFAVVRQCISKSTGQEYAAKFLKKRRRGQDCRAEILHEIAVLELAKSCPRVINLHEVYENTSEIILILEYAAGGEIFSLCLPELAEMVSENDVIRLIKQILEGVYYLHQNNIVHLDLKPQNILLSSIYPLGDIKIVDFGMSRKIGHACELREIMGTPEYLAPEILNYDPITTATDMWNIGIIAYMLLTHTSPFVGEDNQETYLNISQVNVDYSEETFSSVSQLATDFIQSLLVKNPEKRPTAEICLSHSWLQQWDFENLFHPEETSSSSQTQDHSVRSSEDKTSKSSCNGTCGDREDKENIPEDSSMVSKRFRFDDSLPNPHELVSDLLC
As to conditions: DRAK2(h), read-out: Inhibition rate. In outline:
as §1

Test [4] deals with T4, 380 human recombinant protein kinases (Homo sapiens, UniProt Q9UQB9).
T4 construct: purchased Eurofins (Celle Lévescault)
T4 sequence (Q9UQB9 1-309): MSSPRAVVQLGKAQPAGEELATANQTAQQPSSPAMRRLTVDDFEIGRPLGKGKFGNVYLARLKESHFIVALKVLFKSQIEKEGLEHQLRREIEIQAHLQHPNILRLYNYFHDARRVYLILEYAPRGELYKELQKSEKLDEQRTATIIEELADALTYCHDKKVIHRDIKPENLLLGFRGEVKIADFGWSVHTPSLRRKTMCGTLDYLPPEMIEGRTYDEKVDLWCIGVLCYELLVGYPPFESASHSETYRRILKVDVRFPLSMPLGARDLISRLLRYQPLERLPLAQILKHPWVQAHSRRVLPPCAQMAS
Particulars: Aurora-C(h), read-out: Inhibition rate. In outline: as §1

In test [5] the target is T5, 380 human recombinant protein kinases (Homo sapiens, UniProt P06493).
T5 construct: purchased Eurofins (Celle Lévescault)
T5 sequence (P06493 whole entry): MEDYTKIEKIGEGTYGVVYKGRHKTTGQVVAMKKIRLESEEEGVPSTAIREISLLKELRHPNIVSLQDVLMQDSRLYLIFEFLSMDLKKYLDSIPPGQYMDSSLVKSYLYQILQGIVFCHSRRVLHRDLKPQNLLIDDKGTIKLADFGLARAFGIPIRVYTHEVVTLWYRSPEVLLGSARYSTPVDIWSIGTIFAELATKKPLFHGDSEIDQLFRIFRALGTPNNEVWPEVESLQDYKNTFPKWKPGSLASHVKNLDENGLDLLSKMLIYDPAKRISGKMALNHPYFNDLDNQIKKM
As to conditions: CDK1/cyclinB(h), read-out: Inhibition rate. The method in brief:
as §1

The target of test [6] is T6, 380 human recombinant protein kinases (Homo sapiens, UniProt P29320).
T6 construct: purchased Eurofins (Celle Lévescault)
T6 sequence (P29320 21-983): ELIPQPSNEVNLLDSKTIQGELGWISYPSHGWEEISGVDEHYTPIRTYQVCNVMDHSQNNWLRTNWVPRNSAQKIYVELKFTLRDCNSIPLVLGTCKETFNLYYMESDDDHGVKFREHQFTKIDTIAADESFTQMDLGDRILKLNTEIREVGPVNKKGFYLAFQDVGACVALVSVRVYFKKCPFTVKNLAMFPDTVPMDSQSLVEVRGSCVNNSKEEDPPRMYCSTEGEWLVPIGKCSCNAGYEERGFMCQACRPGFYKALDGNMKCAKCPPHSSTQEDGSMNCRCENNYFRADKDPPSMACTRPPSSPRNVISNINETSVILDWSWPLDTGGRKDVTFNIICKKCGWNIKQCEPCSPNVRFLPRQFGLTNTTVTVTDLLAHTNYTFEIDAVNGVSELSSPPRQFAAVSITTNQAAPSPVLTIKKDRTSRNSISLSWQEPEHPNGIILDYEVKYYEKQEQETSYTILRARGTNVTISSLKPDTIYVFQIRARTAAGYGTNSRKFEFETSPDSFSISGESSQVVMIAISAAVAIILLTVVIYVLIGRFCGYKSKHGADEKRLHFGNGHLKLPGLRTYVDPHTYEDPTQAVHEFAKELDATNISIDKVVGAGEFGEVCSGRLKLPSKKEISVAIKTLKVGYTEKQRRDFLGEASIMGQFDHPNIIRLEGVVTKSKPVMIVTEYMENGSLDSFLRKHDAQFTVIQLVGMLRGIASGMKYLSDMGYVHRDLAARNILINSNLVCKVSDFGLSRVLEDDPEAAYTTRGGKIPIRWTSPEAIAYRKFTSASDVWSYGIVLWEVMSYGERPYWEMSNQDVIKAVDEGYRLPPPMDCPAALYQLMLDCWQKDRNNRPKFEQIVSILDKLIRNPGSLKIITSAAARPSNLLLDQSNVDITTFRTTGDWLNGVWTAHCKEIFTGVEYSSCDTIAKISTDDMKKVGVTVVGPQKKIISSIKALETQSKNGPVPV
As to conditions: EphA3(h), read-out: Inhibition rate. The method in brief: as §1

T2 sequence (P28482 whole entry): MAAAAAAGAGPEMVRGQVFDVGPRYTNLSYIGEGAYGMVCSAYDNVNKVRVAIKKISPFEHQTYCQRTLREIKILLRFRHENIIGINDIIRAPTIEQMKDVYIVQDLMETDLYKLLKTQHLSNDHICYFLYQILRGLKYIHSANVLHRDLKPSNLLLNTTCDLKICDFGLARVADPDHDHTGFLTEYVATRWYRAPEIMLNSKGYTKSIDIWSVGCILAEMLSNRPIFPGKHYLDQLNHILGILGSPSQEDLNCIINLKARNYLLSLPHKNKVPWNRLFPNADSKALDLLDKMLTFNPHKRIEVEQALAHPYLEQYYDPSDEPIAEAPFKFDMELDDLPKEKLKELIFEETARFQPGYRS

`C=CC(=O)Nc1cc(-c2cc(-c3cc4c([nH]3)CCNC4=O)ccn2)ccc1OC(F)(F)F` [compound 11]: the inhibition at 0.01 µM in test [1] (10 nM) is 2%; in test [2] (10 nM), -5%; in test [3] (10 nM), 28%; in test [4] (10 nM), 2%; in test [5] (10 nM), 0%; in test [6] (10 nM), 15%. Besides, the inhibition at 0.1 µM in test [1] (100 nM) is -2%; in test [2] (100 nM) it was -7%; in test [3] (100 nM) it was 80%; in test [4] (100 nM), -5%; in test [5] (100 nM) it was 10%; in test [6] (100 nM), -1%. Also, the inhibition at 1 µM in test [1] (1000 nM) was 2%; in test [2] (1000 nM), 13%; in test [3] (1000 nM), 93%; in test [4] (1000 nM) it was 6%; in test [5] (1000 nM) it was 43%; in test [6] (1000 nM), -10%.
